Columns and labels:
[1] = biological target: T1, PI3K-alpha (Homo sapiens, UniProt P42336); test: HTRF PI3K biochemical assay, alpha isoform; conditions: ratio PI3K-alpha IC50 value / PI3K-delta IC50 value
T1 construct: purchased Upstate; Millipore 14-602

[2] = biological target: T2, PI3K-delta (Homo sapiens, UniProt O00329); test: HTRF PI3K biochemical assay, delta isoform; conditions: form screened (neutral or TFA salt) given, read-out: PI3Kdelta IC50
T2 construct: purchased Upstate; Millipore 14-604
T2 sequence (O00329 whole entry, canonical isoform): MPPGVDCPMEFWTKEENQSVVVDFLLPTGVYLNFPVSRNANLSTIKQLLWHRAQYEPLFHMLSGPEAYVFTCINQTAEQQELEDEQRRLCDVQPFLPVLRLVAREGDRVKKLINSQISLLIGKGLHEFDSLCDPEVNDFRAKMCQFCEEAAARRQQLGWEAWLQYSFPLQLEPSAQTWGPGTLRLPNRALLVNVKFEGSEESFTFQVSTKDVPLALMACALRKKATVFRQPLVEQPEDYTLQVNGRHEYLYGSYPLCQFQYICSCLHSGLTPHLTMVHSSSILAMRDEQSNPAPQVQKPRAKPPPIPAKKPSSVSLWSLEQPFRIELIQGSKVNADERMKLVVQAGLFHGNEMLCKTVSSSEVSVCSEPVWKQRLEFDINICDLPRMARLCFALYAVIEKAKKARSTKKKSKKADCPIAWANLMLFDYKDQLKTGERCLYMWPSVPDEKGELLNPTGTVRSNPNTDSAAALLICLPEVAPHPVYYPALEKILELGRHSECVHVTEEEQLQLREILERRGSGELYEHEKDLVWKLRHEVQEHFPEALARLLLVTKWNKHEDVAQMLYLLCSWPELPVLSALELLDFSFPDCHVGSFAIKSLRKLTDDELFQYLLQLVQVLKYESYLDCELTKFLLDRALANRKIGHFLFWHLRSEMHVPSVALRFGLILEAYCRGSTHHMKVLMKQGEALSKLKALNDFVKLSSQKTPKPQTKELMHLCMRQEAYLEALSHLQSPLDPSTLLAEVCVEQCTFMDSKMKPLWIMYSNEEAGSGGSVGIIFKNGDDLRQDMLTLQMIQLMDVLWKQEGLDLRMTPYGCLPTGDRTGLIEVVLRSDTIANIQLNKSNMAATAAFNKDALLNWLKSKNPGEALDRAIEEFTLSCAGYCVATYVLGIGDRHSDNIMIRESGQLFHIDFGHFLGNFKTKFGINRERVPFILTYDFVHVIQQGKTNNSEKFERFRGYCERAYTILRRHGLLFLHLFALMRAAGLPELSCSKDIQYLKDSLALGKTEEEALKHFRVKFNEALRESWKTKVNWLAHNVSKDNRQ
T2 sequence (P27986 whole entry partner, canonical isoform): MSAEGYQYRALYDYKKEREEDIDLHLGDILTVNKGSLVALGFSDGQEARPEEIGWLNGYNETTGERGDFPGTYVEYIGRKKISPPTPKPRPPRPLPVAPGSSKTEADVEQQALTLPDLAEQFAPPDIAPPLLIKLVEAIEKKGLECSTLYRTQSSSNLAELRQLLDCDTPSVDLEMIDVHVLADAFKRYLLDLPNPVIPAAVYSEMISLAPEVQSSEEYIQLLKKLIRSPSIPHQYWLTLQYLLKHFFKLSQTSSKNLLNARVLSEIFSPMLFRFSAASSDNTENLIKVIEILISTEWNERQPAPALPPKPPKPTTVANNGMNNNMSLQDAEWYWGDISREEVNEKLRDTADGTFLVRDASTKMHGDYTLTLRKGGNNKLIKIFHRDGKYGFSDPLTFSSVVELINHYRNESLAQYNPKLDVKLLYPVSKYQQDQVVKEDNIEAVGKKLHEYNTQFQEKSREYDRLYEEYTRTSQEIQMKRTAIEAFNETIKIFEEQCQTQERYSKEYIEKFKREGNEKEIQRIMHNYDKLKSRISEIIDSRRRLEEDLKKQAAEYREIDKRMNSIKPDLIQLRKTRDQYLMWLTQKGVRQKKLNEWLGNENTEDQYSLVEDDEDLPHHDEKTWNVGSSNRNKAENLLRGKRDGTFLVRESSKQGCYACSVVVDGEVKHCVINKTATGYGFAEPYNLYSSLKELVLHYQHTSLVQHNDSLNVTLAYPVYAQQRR

T1 sequence (P42336 whole entry, canonical isoform): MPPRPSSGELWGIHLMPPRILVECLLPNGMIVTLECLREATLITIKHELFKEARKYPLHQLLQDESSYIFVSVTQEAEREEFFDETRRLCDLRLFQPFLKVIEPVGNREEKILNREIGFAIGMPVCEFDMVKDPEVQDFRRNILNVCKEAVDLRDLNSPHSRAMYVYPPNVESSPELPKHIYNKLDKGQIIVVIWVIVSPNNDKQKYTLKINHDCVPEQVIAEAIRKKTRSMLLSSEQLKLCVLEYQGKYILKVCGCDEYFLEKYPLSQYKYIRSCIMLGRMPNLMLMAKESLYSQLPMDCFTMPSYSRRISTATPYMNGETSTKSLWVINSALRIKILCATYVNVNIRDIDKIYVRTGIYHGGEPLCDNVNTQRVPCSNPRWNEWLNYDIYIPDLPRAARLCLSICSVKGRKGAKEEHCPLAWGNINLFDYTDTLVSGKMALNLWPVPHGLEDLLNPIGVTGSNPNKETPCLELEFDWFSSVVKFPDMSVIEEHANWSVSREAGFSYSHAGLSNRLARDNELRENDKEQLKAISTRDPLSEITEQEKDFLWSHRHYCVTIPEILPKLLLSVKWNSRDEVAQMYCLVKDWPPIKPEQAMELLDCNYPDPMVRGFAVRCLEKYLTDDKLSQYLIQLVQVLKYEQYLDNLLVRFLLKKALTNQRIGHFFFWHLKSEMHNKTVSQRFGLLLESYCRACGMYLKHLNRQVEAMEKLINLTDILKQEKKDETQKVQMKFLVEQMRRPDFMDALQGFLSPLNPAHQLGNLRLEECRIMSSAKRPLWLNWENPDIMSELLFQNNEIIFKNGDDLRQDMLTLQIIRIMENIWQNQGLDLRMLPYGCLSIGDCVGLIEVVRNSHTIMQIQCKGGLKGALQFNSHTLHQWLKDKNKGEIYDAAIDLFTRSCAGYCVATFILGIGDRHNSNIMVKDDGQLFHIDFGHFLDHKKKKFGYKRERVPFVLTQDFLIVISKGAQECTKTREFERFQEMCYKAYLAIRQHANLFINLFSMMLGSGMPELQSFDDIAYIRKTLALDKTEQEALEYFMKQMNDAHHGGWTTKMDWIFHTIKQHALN
T1 sequence (P27986 whole entry partner, canonical isoform): as the sequence (P27986 whole entry partner, canonical isoform) above

Selectivity versus PI3Kalpha [1] | IC50 [2] | Compound
>10 | 17 nM | CCn1c(C(=O)NC2CCCCC2)nc2c(N[C@H]3CCN(C(=O)C4CC4)C3)ncnc21 [Compound 6-14, N-cyclohexyl-6-{[(3S)-1-(cyclopropylcarbonyl)pyrrolidin-3-yl]amino}-9-ethyl-9H-purine-8-carboxamide]
>10 | 230 nM | CCn1c(C(=O)N(C)CC(F)(F)F)nc2c(N[C@H]3CCN(C(=O)C4CC4)C3)ncnc21 [Compound 6-15, 6-{[(3S)-1-(cyclopropylcarbonyl)pyrrolidin-3-yl]amino}-9-ethyl-N-methyl-N-(2,2,2-trifluoroethyl)-9H-purine-8-carboxamide]
>10 | 20 nM | CCn1c(C(=O)NC(C)(C)C)nc2c(N[C@H]3CCN(C(=O)C4CC4)C3)ncnc21 [Compound 6-16, N-tert-butyl-6-{[(3S)-1-(cyclopropylcarbonyl)pyrrolidin-3-yl]amino}-9-ethyl-9H-purine-8-carboxamide]
>10 | 14 nM | CCn1c(C(=O)NCCC(F)(F)F)nc2c(N[C@H]3CCN(C(=O)C4CC4)C3)ncnc21 [Compound 6-17, 6-{[(3S)-1-(cyclopropylcarbonyl)pyrrolidin-3-yl]amino}-9-ethyl-N-(3,3,3-trifluoropropyl)-9H-purine-8-carboxamide]
>10 | 15 nM | CCn1c(C(=O)Nc2ccccc2)nc2c(N[C@H]3CCN(C(=O)C4CC4)C3)ncnc21 [Compound 6-18, 6-{[(3S)-1-(cyclopropylcarbonyl)pyrrolidin-3-yl]amino}-9-ethyl-N-phenyl-9H-purine-8-carboxamide]
>10 | 31 nM | CCNC(=O)c1nc2c(N[C@H]3CCN(C(=O)C4CC4)C3)ncnc2n1CC [Compound 6-19, 6-{[(3S)-1-(cyclopropylcarbonyl)pyrrolidin-3-yl]amino}-N,9-diethyl-9H-purine-8-carboxamide]
>10 | 23 nM | CCn1c(C(=O)Nc2ccccn2)nc2c(N[C@H]3CCN(C(=O)C4CC4)C3)ncnc21 [Compound 6-20, 6-{[(3S)-1-(cyclopropylcarbonyl)pyrrolidin-3-yl]amino}-9-ethyl-N-pyridin-2-yl-9H-purine-8-carboxamide]
>10 | 17 nM | CCn1c(C(=O)Nc2cccnc2)nc2c(N[C@H]3CCN(C(=O)C4CC4)C3)ncnc21 [Compound 6-21, 6-{[(3S)-1-(cyclopropylcarbonyl)pyrrolidin-3-yl]amino}-9-ethyl-N-pyridin-3-yl-9H-purine-8-carboxamide]
>10 | 47 nM | CCn1c(CC2CC2)nc2c(N[C@H]3CCN(C(=O)C4CC4)C3)ncnc21 [Compound 7-1, N-[(3S)-1-(cyclopropylcarbonyl)pyrrolidin-3-yl]-8-(cyclopropylmethyl)-9-ethyl-9H-purin-6-amine]
>10 | 51 nM | CCC(=O)N1CC[C@H](Nc2ncnc3c2nc(CC(C)C)n3CC)C1 [Compound 7-2, 9-ethyl-8-(2-methylpropyl)-N-[(3S)-1-propanoylpyrrolidin-3-yl]-9H-purin-6-amine]
>10 | 140 nM | CCC(=O)N1CC[C@H](Nc2ncnc3c2nc(CC(C)C)n3C)C1 [Compound 7-3, 9-methyl-8-(2-methylpropyl)-N-[(3S)-1-propanoylpyrrolidin-3-yl]-9H-purin-6-amine]
>10 | 500 nM | CCC(=O)N1CC[C@H](Nc2ncnc3c2nc(C)n3CC)C1 [Compound 7-4, 9-ethyl-8-methyl-N-[(3S)-1-propanoylpyrrolidin-3-yl]-9H-purin-6-amine]
>10 | 130 nM | CCn1c(C(C)C)nc2c(N[C@H]3CCN(C(=O)C4CC4)C3)ncnc21 [Compound 7-5, N-[(3S)-1-(cyclopropylcarbonyl)pyrrolidin-3-yl]-9-ethyl-8-(1-methylethyl)-9H-purin-6-amine]
>10 | 110 nM | CCn1c(CCCO)nc2c(N[C@H]3CCN(C(=O)C4CC4)C3)ncnc21 [Compound 7-6, 3-(6-{[(3S)-1-(cyclopropylcarbonyl)pyrrolidin-3-yl]amino}-9-ethyl-9H-purin-8-yl)propan-1-ol]
>10 | 770 nM | CCn1c(CC(F)(F)F)nc2c(N[C@H]3CCN(C(=O)C4CC4)C3)ncnc21 [Compound 7-7, N-[(3S)-1-(cyclopropylcarbonyl)pyrrolidin-3-yl]-9-ethyl-8-(2,2,2-trifluoroethyl)-9H-purin-6-amine]
>10 | 190 nM | CCn1c(COC)nc2c(N[C@H]3CCN(C(=O)C4CC4)C3)ncnc21 [Compound 7-8, N-[(3S)-1-(cyclopropylcarbonyl)pyrrolidin-3-yl]-9-ethyl-8-(methoxymethyl)-9H-purin-6-amine]
>10 | 98 nM | CCC(=O)N1CC[C@H](Nc2ncnc3c2nc(C2CC2)n3C)C1 [Compound 7-9, 8-cyclopropyl-9-methyl-N-[(3S)-1-propanoylpyrrolidin-3-yl]-9H-purin-6-amine]

Selectivity versus PI3Kalpha [1] | IC50 [2] | Compound
>10 | 120 nM | CCn1c(C2CC2)nc2c(N[C@H]3CCN(C(=O)C4CC4)C3)ncnc21 [Compound 7-10, 8-cyclopropyl-N-[(3S)-1-(cyclopropylcarbonyl)pyrrolidin-3-yl]-9-ethyl-9H-purin-6-amine]
>10 | 14 nM | CCC(=O)N1CC[C@H](Nc2ncnc3c2nc(C(F)(F)F)n3CC)C1 [Compound 7-11, 9-ethyl-N-[(3S)-1-propanoylpyrrolidin-3-yl]-8-(trifluoromethyl)-9H-purin-6-amine]
>10 | 39 nM | CCn1c(C(F)F)nc2c(N[C@H]3CCN(C(=O)c4ccn(C)n4)C3)ncnc21 [Compound 7-12, 8-(difluoromethyl)-9-ethyl-N-{(3S)-1-[(1-methyl-1H-pyrazol-3-yl)carbonyl]pyrrolidin-3-yl}-9H-purin-6-amine]
>10 | 32 nM | CCC(=O)N1CC[C@H](Nc2ncnc3c2nc(C(F)F)n3CC)C1 [Compound 7-13, 8-(difluoromethyl)-9-ethyl-N-[(3S)-1-propanoylpyrrolidin-3-yl]-9H-purin-6-amine]
>10 | 22 nM | CCn1c(C(F)F)nc2c(N[C@H]3CCN(C(=O)C4CC4)C3)ncnc21 [Compound 7-14, N-[(3S)-1-(cyclopropylcarbonyl)pyrrolidin-3-yl]-8-(difluoromethyl)-9-ethyl-9H-purin-6-amine]
>10 | 7.6 nM | CCn1c(C(F)F)nc2c(N[C@H]3CCN(C(=O)C4CCC4)C3)ncnc21 [Compound 7-15, N-[(3S)-1-(cyclobutylcarbonyl)pyrrolidin-3-yl]-8-(difluoromethyl)-9-ethyl-9H-purin-6-amine]
>10 | 120 nM | CCn1c(C(F)F)nc2c(N[C@H]3CCN(C(=O)c4cocn4)C3)ncnc21 [Compound 7-16, 8-(difluoromethyl)-9-ethyl-N-[(3S)-1-(1,3-oxazol-4-ylcarbonyl)pyrrolidin-3-yl]-9H-purin-6-amine]
>10 | 74 nM | CCn1c(C(F)F)nc2c(N[C@H]3CCN(C(=O)[C@H]4C[C@H](OC)C4)C3)ncnc21 [Compound 7-17, 8-(difluoromethyl)-9-ethyl-N-{(3S)-1-[(trans-3-methoxycyclobutyl)carbonyl]pyrrolidin-3-yl}-9H-purin-6-amine]
>10 | 11 nM | CCn1c(C(F)F)nc2c(N[C@H]3CCN(C(=O)[C@H]4C[C@@H](OC)C4)C3)ncnc21 [Compound 7-18, 8-(difluoromethyl)-9-ethyl-N-{(3S)-1-[(cis-3-methoxycyclobutyl)carbonyl]pyrrolidin-3-yl}-9H-purin-6-amine]
>10 | 380 nM | CCn1c(C(F)F)nc2c(N[C@H]3CCN(C(=O)[C@H]4CCCN4C)C3)ncnc21 [Compound 7-19, 8-(difluoromethyl)-9-ethyl-N-[(3S)-1-(1-methyl-D-prolyl)pyrrolidin-3-yl]-9H-purin-6-amine]
>10 | 230 nM | CCn1c(CCOC)nc2c(N[C@H]3CCN(C(=O)C4CC4)C3)ncnc21 [Compound 7-22, N-[(3S)-1-(cyclopropylcarbonyl)pyrrolidin-3-yl]-9-ethyl-8-(2-methoxyethyl)-9H-purin-6-amine]
>10 | 120 nM | CCc1nc2c(N[C@H]3CCN(C(=O)C4CC4)C3)ncnc2n1CC [Compound 7-23, N-[(3S)-1-(cyclopropylcarbonyl)pyrrolidin-3-yl]-8,9-diethyl-9H-purin-6-amine]
>10 | 150 nM | CCn1c(C(C)(C)C)nc2c(N[C@H]3CCN(C(=O)C4CC4)C3)ncnc21 [Compound 7-24, 8-tert-butyl-N-[(3S)-1-(cyclopropylcarbonyl)pyrrolidin-3-yl]-9-ethyl-9H-purin-6-amine]
>10 | 100 nM | CCn1c(CC2CN(S(C)(=O)=O)C2)nc2c(N[C@H]3CCN(C(=O)C4CC4)C3)ncnc21 [Compound 7-25, N-[(3S)-1-(cyclopropylcarbonyl)pyrrolidin-3-yl]-9-ethyl-8-{[1-(methylsulfonyl)azetidin-3-yl]methyl}-9H-purin-6-amine]
>10 | 28 nM | CCn1c(C(F)F)nc2c(N[C@H]3CCN(c4ccccn4)C3)ncnc21 [Compound 7-26, 8-(difluoromethyl)-9-ethyl-N-[(3S)-1-pyridin-2-ylpyrrolidin-3-yl]-9H-purin-6-amine]
>10 | 5.2 nM | CCn1c(C(F)F)nc2c(N[C@H]3CCN(C(=O)N4CCC4)C3)ncnc21 [Compound 7-27, N-[(3S)-1-(azetidin-1-ylcarbonyl)pyrrolidin-3-yl]-8-(difluoromethyl)-9-ethyl-9H-purin-6-amine]

From patent publication US9938281B2 (Merck Sharp & Dohme Corp., priority 2012, dated 2018)
